Laboratory results published in patent US20120065365A1, “Stable Radiopharmaceutical Compositions and Methods for Their Preparation” (BRACCO IMAGING S.P.A., priority 2003, published 2012).
Where a name gives a salt, the structure may show the parent alone. Read-outs that look alike come from different tables or passages of the source. Each block holds one compound with its values, some of them ahead of it.

Tests used:
[1] = assay type: physicochemical; conditions: stabilizer 5 mg/mL added after complex preparation; for RCP % t = 0 h: ^177Lu-A (3.34 mCi avg per aliquot), analysed 1-3.5 hrs after preparation; for RCP % t = 24 h: ^177Lu-A, room temperature
Method: In this study, sulfur-containing compounds were tested. Cysteine has been used as an antioxidant for many drugs that contain oxidizable residues.
Solutions of each individual stabilizer (10 mg/mL) were prepared in water. To a lead-shielded 4-mL vial was added 300 μL of NaOAc buffer (0.2M, pH 4.8), 29.0 mCi ^177LuCl3 and 41.4 μg COMPOUND A (dissolved in water). The ratio of COMPOUND A to Lutetium was 3:1. The reaction mixture was heated, cooled, treated with Na2EDTA.2H2O and analyzed by HPLC as described in Example 13. Seven 50-μL aliquots (3.34 mCi ^177Lu avg each) were transferred to individual HPLC vials. To one aliquot, 50 μL of water was added for use as a control sample (no stabilizer). To the other six aliquots, 50 μL of an individual stabilizer solution (0.5 mg of stabilizer) was added, and then each was analyzed by HPLC (Method 2). The control sample, and L-cysteine ethyl ester hydrochloride and L-cysteine methyl ester hydrochloride samples were analyzed again after 24 hours of storage at room temperature.

[2] = ^177Lu-A 50 mCi in 2 mL, room temperature
[3] = Radiostability (RCP, Met═O by HPLC) of preformed ^177Lu-A with individual amino acids added (Example 1); assay type: physicochemical; conditions: amino acid 6.6 mg/mL, room temperature
Method: (§1) The injection volume was 20 μL.
Solutions of the individual amino acids L-Methionine, L-Selenomethionine, L-cysteine HCl.H2O, L-Tryptophan, L-Histidine, and Glycine were prepared at a concentration of 10 mg/mL in 10 mM Dulbecco's phosphate-buffered saline, pH 7.0 [PBS].
The final radioactive concentration of each sample was ˜20 mCi/mL.

[4] = assay type: physicochemical; conditions: for RCP % t = 0 h: ^177Lu-A (4.80 mCi) prepared in presence of stabilizer 5 mg/mL; for RCP % t = 24 h / RCP % t = 48 h / RCP (%) t = 72 h: ^177Lu-A prepared in presence of stabilizer 5 mg/mL, room temperature
Method: Solutions of L-cysteine ethyl ester hydrochloride and L-cysteine methyl ester hydrochloride (5 mg/mL) were prepared by dissolving them in NaOAc buffer (0.2 M, pH 4.8). To lead-shielded 4-mL vials were added 200 μL of the individual NaOAc-stabilizer solutions, 4.80 mCi ^177LuCl3 and 7.26 μg COMPOUND A (dissolved in water). The ratio of COMPOUND A to Lutetium was 3:1 for all samples. The reaction mixtures were heated, cooled, treated with Na2EDTA.2H2O and analyzed by HPLC as described in Example 13, and then each was stored at room temperature for 72 hours. Each sample was analyzed by HPLC (Method 2) at t=0, 24, 48 and 72 h.

[5] = assay type: physicochemical
Method: The reaction vial was crimp-sealed and heated at 100° C. for 5 min. […] The sample was stored in an autosampler in which the temperature is ˜6° C. […] than room temperature, and analyzed by RP-HPLC for up to 24 hours.
L-Selenomethionine: ^177Lu-B was prepared, diluted and analyzed as described above, but 5 mg of L-Se-Met was used in place of PDTC, the heating time was 10 minutes, and the quantity of radioactivity used was 52 mCi.
L-cysteine ethyl ester, HCl: ^177Lu-B was prepared, diluted and analyzed as described above, but 5 mg of L-CEE, hydrochloride salt was used in place of PDTC, the heating time was 5 minutes and the quantity of radioactivity used was 50 mCi.
L-cysteine HCl.H2O: ^177Lu-B was prepared, diluted and analyzed as described above, but 5 mg of L-Cys HCl.H2O was used in place of PDTC, the heating time was 8 minutes and the quantity of radioactivity used was 53 mCi.

[6] = assay type: physicochemical; remark: listed apart in the source
Method: as §1
Ethionamide was prepared at a 10 mg/mL concentration by dissolving it in EtOH. […] Another sample was prepared to which was added 100 μL of ethanol only (no stabilizer), for use as a control sample. […] The reaction mixture was heated to 100° C. for 5 minutes then cooled for 5 minutes in an ambient-temperature water bath. To each sample, 10 μL of 2% Na2EDTA.2H2O in water was added, and then each was analysed by HPLC (Method 2) and stored at room temperature for up to 96 hours.

[7] = assay type: physicochemical; remark: listed apart in the source
Method: The ratio of COMPOUND A to Lutetium was 3:1 for all samples. The reaction mixtures were heated, cooled, treated with Na2EDTA.2H2O and analyzed by HPLC as described in Example 13, and then stored at room temperature for 24 hours, at which time all samples were analyzed again.

[8] = assay type: physicochemical; conditions: ^177Lu-A 13.9 mCi/mL, stabilizer 5 mg/mL added after complex preparation, room temperature
Method: as §1
Compounds containing the —C═S moiety [dithiocarbamates and ethionamide] were examined in this study.
Each individual stabilizer was prepared at a concentration of 10 mg/mL in water. Ethionamide was dissolved in EtOH. […] The reaction mixture was heated to 100° C. for 5 minutes, then cooled for 5 minutes in an ambient-temperature water bath. […] To an aliquot, 100 μL of one of the stabilizer solutions (1 mg of stabilizer) was added. Each aliquot was analyzed (t=0 h) by HPLC (Method 2) and stored at room temperature for 48 hours. All samples were analyzed again at t=24 h and 48 h.

% RCP 0-d ([2]; 2.5 mg/mL L-methionine (5 mg), 0 d): 96.1% | % RCP 1-d ([2]; 2.5 mg/mL L-methionine, 1 d): 53.5% | % RCP 2-d ([2]; 2.5 mg/mL L-methionine, 2 d): 26.9% | % RCP 5-d ([2]; 2.5 mg/mL L-methionine, 5 d): 0% | 0-1 h RCP (%) ([3]; ^177Lu-A ~20 mCi/mL (3.5 mCi total), 0-1 h): 100% | 24-h RCP (%) ([3]; ^177Lu-A ~20 mCi/mL, 24 h): 99.3% | 48-h RCP (%) ([3]; ^177Lu-A ~20 mCi/mL, 48 h): 94%
Compound: CSCC[C@H](N)C(=O)O [L-Methionine]

RCP % t = 0 h [1]: 90.4% | RCP % t = 24 h [1]: 74.4% | RCP % t = 0 h [4]: 100% | RCP % t = 24 h [4]: 97.1% | RCP % t = 48 h [4]: 93.7% | RCP (%) t = 72 h [4]: 87.2%
Compound: COC(=O)[C@@H](N)CS [L-cysteine methyl ester hydrochloride]

RCP % t = 0 h [1]: 91.5% | RCP % t = 24 h [1]: 73.2% | (% RCP) 3-h ([5]; ^177Lu-B (44-53 mCi) formulated with 5 mg stabilizing compound, 3 h): 96.9% | (% RCP) 6-h ([5]; ^177Lu-B (44-53 mCi) formulated with 5 mg stabilizing compound, 6 h): 94.7% | (% RCP) 9-h ([5]; ^177Lu-B (44-53 mCi) formulated with 5 mg stabilizing compound, 9 h): 92.8% | (% RCP) 12-h ([5]; ^177Lu-B (44-53 mCi) formulated with 5 mg stabilizing compound, 12 h): 92.2% | (% RCP) 24-h ([5]; ^177Lu-B (44-53 mCi) formulated with 5 mg stabilizing compound, 24 h): 85.1% | (% RCP) 0-h ([5]; ^177Lu-B (44-53 mCi) formulated with 5 mg stabilizing compound, diluted to ~2 mL, ~6° C. above room temperature, 0 h): 98.4% | RCP Drop over 24 hr ([5]; ^177Lu-B formulated with 5 mg stabilizing compound, 0 to 24 h): 13.3% | RCP % t = 0 h [4]: 100% | RCP % t = 24 h [4]: 96.5% | RCP % t = 48 h [4]: 93.5% | RCP (%) t = 72 h [4]: 87.4%
Compound: CCOC(=O)[C@@H](N)CS [L-cysteine ethyl ester hydrochloride]

Continued, compound first:

Compound: N[C@@H](CS(=O)O)C(=O)O.O [L-cysteinesulfinic acid monohydrate]
RCP % t = 0 h [1]: 75.0%

Compound: CCOC(=O)[C@@H](N)CSSC[C@H](N)C(=O)OCC.Cl.Cl [L-cysteine diethyl ester dihydrochloride]
RCP % t = 0 h [1]: 61.5%

Compound: Cl.Cl.NCCSSCCN [Cystamine dihydrochloride]
RCP % t = 0 h [1]: 66.2%

Compound: COC(=O)[C@@H](N)CSSC[C@H](N)C(=O)OC.Cl.Cl
RCP % t = 0 h [1]: 70.1%

Compound: CCc1cc(C(N)=S)ccn1 [Ethionamide, 2-Ethyl-4-pyridinecarbothioamide (Ethionamide), reference compound]
RCP % t = 0 h ([6]; ^177Lu-A (5.25 mCi avg) prepared in presence of stabilizer ~3.33 mg/mL, 0 h): 100% | RCP % t = 24 h ([6]; ^177Lu-A prepared in presence of stabilizer ~3.33 mg/mL, room temperature, 24 h): 98.1% | RCP % t = 96 h ([6]; ^177Lu-A prepared in presence of stabilizer ~3.33 mg/mL, room temperature, 96 h): 94.6% | RCP % t = 0 h ([7]; ^177Lu-A (4.65-5.64 mCi) prepared in presence of stabilizer 5 mg/mL, 0 h): 80.8% | RCP % t = 24 h ([7]; ^177Lu-A prepared in presence of stabilizer 5 mg/mL, room temperature, 24 h): 77.5% | RCP % t = 0 h ([8]; 0 h): 97.4% | RCP % t = 24 h ([8]; 24 h): 97.0% | RCP % t = 48 h ([8]; 48 h): 94.7%
